One series deals with oral cavity. Put plainly: Oral cavity test of tablets placed in the back of the mouth. The class given is in vivo, human. How it is done: The NACHE were also tested in the oral cavity using these methods: a) placement of 2 mg of the crystalline chemical on the dorsal surface of the tongue, b) incorporation of 2 mg of NACHE into a rapidly-distintegrating tablet of 60 mg weight, and placement of the tablet on the caudal-dorsal surface of the tongue, c) placement of a 0.3 mL aliquot of a 5 mg/mL solution of a NACHE in a 50% ethanol-distilled water solution, and d) delivery of a 5 mg/mL solution of a NACHE in a 50% ethanol-distilled water solution into the oral cavity using a hand-activated mouth spray dispenser. The tests in the oral cavity were important because many cooling agents used in confectionery and comestibles have disagreeable tastes of bitterness, harshness or burning qualities that limit their utility in such items as candy, mints, mouthwashes, mouth fresheners, and cough syrups.
Tablets of CPS-154 were prepared. To weighed samples of about 200 mg of CPS-154 was added varying amounts of Ludipress® (BASF, Germany) to give CPS-154 concentrations of 2.5, 3. 5, 10 and 10% by wt. The two ingredients were then thoroughly mixed in a mortar and pestle. To this mixture when then added 5 to 7 mL of 10% ethanol −90% distilled water solution. Using an eye dropper or a pipette, fixed volumes of the solution was placed on wax paper and dried under a heat source. The tablets were then sized and weighed.
Using the above formulation methods, three doses of 1, 2 and 4 mg per application were examined. […] The onset effect was usually within 30 seconds of application. […] Also, the effects of menthol were short-lived, on the order 8 to 12 minutes, versus a 20 to 30 minute period or longer.

The test system of series [1] is dorsal surface of the tongue. To be noted: average for 6 subjects, after 30 seconds; cited from earlier work.
Another series relates to skin above the upper lip. The series can be described thus: Cooling sensation bioassay: ointment applied to skin above the upper lip. The class given is in vivo, human. The source says: A reliable place for topical application is the skin above the upper lip (above the vermilion border of the lips), on the philtrum, lateral to the philtrum until the nasolabial folds, and on the lower nostrils (subnasale). This part of the face is known to be densely innervated with cold receptors, second only to the surfaces of the eyeball and anogenitalia. A second location is on or below the malar eminence (cheekbone). The skin above the cheekbone is thicker than above the lips, and therefore has a higher threshold for activation. At both loci, tingling, cool and cold sensations in the skin may be experienced and rated for time of onset and intensity.
The intensity of the subjective skin sensation is rated as 0, 1, 2 or 3 with 0 as no change, 1 as slight coolness, cold, or tingling, 2 as clear-cut signal of coolness, cold, or tingling, and 3 as robust cooling or cold. The intervals for recording sensations are 5 to 10 minutes, until two successive zeroes are obtained. The results (shown in FIG. 1) are averaged values of 4 to 6 separate trials in the same individual. The data are plotted using SigmaPlot (Systat Software, Point Richmond Calif.) and a smoothing function with a negative eponential was used for analysis and statistical fit of the results. […]

Series [2] relates to cough. Put plainly: Powder on the tongue of two cigar smokers with cough. It counts as in vivo, human. The source says:
Two males, were inveterate cigar smokers consuming 3 to 5 cigars per day. They both had frequent bouts of dry, non-productive, hacking coughs. At night, there were episodes of insomnia characterized by difficulties in breathing, an oppressive pressure on the chest and throat, and subsequent awakening with sensations of choking. During the day, a frequent and persistent sensation was that of tickling, irritative feelings in the back of the throat that led to coughing.
In 10 trials per subject, 2 mg of 92% pure powder of CPS-154 was placed on the mid-portion of the tongue of these two subjects. Both subjects reported relief from the desire to cough within 1 minute after application. Sensations of robust coolness in the back of the throat was noted and lasted for 15 to 20 minutes. Applications of similar amounts of powdered sugar were not effective, but the placebo could be clearly distinguished from the active compound because of the absence of cooling sensations.

Series [3] has as its system asthmatic coughing attacks. Put plainly: Tablets as needed in a subject with asthma. It counts as in vivo, human. From the text:
A person with a documented 31-year history of asthma attacks volunteered to test one of the compounds of Formula 1. They were extremely sensitive to agents such as tobacco smoke, dust, pollen, odors, down/woolen materials, house cleansing products, pets, and sudden change of air temperature and reacted with violent coughing, mucus secretions, wheezing, choking, and shortness of breath. At the time of this trial, they were taking these medications for their condition: theophylline, Allegra®, Advair®, Intal®, and Singulair®. They were given 20 tablets of CPS-154, synthesized as described in Example 3, and instructed to take one on an as-needed basis.

A further series concerns viral cough. Put plainly: Tablets as needed in a subject with viral cough. It counts as in vivo, human. To be noted: 2.0 mg tablets as needed. How it is done:
A person has severe allergies and also developed a cough after a cruise trip overseas. Upon visit to a physician, they were diagnosed with a “viral cough” and prescribed codeine in a syrup. They volunteered to try CPS-154 tablets and was supplied with 15 tablets stored in a flip top plastic box, each containing 2.0 mg of CPS-154, in a 4% wt/wt lactose matrix (Ludipress®). The subject was instructed to take one tablet on an as-needed basis, with a preferred interval of 3 to 4 hours between tablets.

In series [4] the test system is cough. The series can be described thus: Orally-disintegrating tablet in the back of the mouth, anti-tussive action. It counts as in vivo. To be noted: 40 to 60 mg Ludipress tablet containing 1 to 5 mg. The source says: Especially favored in this invention is the formulation of the NACHE of Formula 1, into an orally-disintegrating tablet.

Turning to `CC1CCC(C(C)C)C(O)C1` (single isomer, unassigned; (-)) [Menthol, (−)-menthol, reference compound], the “quality and site of cooling sensations” value in the series with oral cavity (tablets, 2 or 4 mg dose) was “cooling primarily in the nasopharynx and less in the oral cavity”. The “Threshold (amount producing cooling sensations on the tongue), average” value in series [1] was 0.25 µg.

On to `CC(C)[C@@H]1CC[C@@H](C)C[C@H]1C(=O)N[C@H](C)C(=O)OCCCO` [CPS-154, (R)-2-[((1R,2S,5R)-2-isopropyl-5-methyl-cyclohexanecarbonyl)-amino]-propionic acid 3-hydroxy-propyl ester], for which, in the series with skin above the upper lip (Aquaphor ointment 0.5 and 1% wt/vol, 50 to 80 mg), the “duration of action of cooling on the skin of the upper lip” value is listed as “more than 1 hour”. Moreover, the “potency / cooling activity on the skin of the upper lip (comparison, FIG. 1)” value in the series with skin above the upper lip (ointment on upper lip skin) is reported as “comparable to its alkyl ester analog, CPS-369”. Also, in the series on oral cavity (Ludipress tablets), the “dissolution of tablets in the back of the mouth” value is given as “dissolved within a matter of seconds”. Also, the “activity in the oral cavity, D-analog versus L-equivalent” value in the series on oral cavity (tablets) was “clearly more active than the L-equivalent”. In the series on oral cavity (tablets, 2 or 4 mg dose), the “onset of cooling effect after application” value was at most 30 s; the “quality and site of cooling sensations” value was “pleasant and robust cooling sensations on the tongue, extending down to the back of throat”. Further, in the series with cough [2] (2 mg of 92% pure powder on mid-portion of the tongue, 2 subjects), the “time to relief from the desire to cough” value is at most 1 min. Besides, the “time the desire to cough was removed” value in the series on cough [2] (after 8 applications, continued smoking of cigars) is given as “at least 3 days”. Besides, the “recurrence of asthmatic coughing attacks” value in series [3] (continued use of tablets as needed) is on record as “have not recurred with any severity for six months”. In addition, the side-effects entry in series [3] (one tablet, asthma subject) was “did not sense any build up of sputum or other side-effects”. Moreover, the “effect on cough severity” value with viral cough is “less severe”. The anti-tussive action result with cough [4] is “robust anti-tussive action for several hours”.
